# Assay results published in ChEMBL document CHEMBL1201862, “PubChem BioAssay data set” (2004).
# Calls of active or inactive are those of the source.
# Columns and labels:
# [1] = biological target: Intestinal-type alkaline phosphatase (Mus musculus, UniProt P24822); assay: mouse intestinal alkaline phosphatase activators, dose response, biochemical, luminescence, uHTS hits (AID 488783); assay type: functional
# [2] = biological target: T1, Alkaline phosphatase, tissue-nonspecific isozyme (Homo sapiens, UniProt P05186); assay: activation of tissue-nonspecific alkaline phosphatase – biochemical, TNAP isozyme, mouse IAP uHTS hits, selectivity assay for mouse IAP activator project, dose response (AID 488880); assay type: functional
# T1 sequence (P05186 whole entry): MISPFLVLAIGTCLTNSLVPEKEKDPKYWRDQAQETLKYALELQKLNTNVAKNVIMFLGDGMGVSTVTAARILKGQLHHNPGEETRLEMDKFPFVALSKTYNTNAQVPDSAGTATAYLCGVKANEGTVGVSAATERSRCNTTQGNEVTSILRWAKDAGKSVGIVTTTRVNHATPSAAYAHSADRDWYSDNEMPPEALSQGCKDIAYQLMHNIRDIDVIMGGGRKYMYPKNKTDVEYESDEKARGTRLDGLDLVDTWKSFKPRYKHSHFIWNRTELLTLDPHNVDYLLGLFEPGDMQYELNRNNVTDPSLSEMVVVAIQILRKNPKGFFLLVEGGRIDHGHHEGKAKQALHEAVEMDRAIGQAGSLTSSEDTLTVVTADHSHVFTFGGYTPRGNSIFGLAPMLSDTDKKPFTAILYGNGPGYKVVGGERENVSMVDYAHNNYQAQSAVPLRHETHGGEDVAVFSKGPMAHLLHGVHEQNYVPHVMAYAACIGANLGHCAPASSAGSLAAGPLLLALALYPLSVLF
# [3] = biological target: Intestinal-type alkaline phosphatase (Homo sapiens, UniProt P09923); assay: activation of human intestinal alkaline phosphatase – biochemical, dose response (AID 488873); assay type: functional
# [4] = biological target: Peroxisome proliferator-activated receptor gamma/Nuclear receptor coactivator 1 (Homo sapiens, UniProt P37231); assay: TR-FRET dose response biochemical High Throughput Screening assay for agonists of the steroid receptor coactivator 1 (SRC-1) recruitment by the peroxisome proliferator-activated receptor gamma (PPAR gamma): non-selective agonists. [Related pubchem assays (depositor defined):AID1300, AID1808, AID504735, AID631]; assay type: protein assay
# Leucine aminopeptidase = biological target: T2, Leucine aminopeptidase (Plasmodium falciparum 3D7, UniProt Q8IL11); assay: P. falciparum M17LAP inhibitors, primary screen, biochemical, fluorogenic H-Leu-NHMec substrate, 1536-well (AID 1619); assay type: functional
# T2 sequence (Q8IL11 whole entry): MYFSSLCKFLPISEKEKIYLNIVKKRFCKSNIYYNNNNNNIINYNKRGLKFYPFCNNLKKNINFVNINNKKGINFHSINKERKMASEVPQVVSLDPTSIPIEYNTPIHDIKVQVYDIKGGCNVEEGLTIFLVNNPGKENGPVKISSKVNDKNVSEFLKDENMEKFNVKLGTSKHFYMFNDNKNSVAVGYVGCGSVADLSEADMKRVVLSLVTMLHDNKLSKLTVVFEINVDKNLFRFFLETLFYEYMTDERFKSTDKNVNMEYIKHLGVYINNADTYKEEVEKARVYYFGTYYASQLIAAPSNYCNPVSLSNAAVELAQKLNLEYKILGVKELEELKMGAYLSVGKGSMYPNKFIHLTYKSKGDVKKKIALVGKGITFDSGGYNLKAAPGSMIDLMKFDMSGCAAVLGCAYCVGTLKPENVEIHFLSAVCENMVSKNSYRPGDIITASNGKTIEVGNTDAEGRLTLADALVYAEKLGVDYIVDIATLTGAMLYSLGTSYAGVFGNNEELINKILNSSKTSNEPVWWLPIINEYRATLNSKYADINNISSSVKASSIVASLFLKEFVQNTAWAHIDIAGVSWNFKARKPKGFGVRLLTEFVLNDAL
# [5] = biological target: Peroxisome proliferator-activated receptor gamma/Nuclear receptor coactivator 2 (Homo sapiens, UniProt P37231); assay: (§1) TR-FRET dose response biochemical High Throughput Screening assay for agonists of the steroid receptor coactivator 2 (SRC-2) recruitment by the peroxisome proliferator-activated receptor gamma (PPAR gamma): non-selective agonists. [Related pubchem assays: 1297, 1032 ]; assay type: functional
# [6] = biological target: Peroxisome proliferator-activated receptor gamma/Nuclear receptor coactivator 3 (Homo sapiens, UniProt P37231); assay: as §1, with “3 (SRC-3)” for “2 (SRC-2)”, “1301 (Confirmation screen.), 1048 (Primary screen.)]” for “1297, 1032 ]”; assay type: functional
# [7] = biological target: T3, Ubiquitin-conjugating enzyme E2 N (Homo sapiens, UniProt P61088); assay type: functional
# T3 sequence (P61088 whole entry): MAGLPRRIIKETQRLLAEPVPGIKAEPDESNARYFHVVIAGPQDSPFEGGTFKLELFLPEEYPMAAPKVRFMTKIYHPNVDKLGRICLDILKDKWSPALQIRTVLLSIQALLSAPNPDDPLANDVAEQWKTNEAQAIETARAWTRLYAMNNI
# [8] = biological target: T3, Ubiquitin-conjugating enzyme E2 N; assay type: functional; remark: listed apart in the source
# Bcl-2-related protein A1 = biological target: T4, Bcl-2-related protein A1 (Mus musculus, UniProt Q07440); assay type: functional;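 note: confirmatory dose–response counterscreen on Bfl-1, used to check hits from a UBC13 polyubiquitin inhibitor campaign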
# T4 sequence (Q07440 whole entry): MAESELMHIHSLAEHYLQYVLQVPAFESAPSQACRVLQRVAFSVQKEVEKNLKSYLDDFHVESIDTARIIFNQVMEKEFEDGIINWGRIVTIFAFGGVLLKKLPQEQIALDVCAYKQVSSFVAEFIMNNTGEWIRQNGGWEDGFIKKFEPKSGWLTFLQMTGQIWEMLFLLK
# CAAX prenyl protease 2 [9] = biological target: T5, CAAX prenyl protease 2 (Saccharomyces cerevisiae S288c, UniProt Q03530); assay type: biochemical
# T5 sequence (Q03530 whole entry): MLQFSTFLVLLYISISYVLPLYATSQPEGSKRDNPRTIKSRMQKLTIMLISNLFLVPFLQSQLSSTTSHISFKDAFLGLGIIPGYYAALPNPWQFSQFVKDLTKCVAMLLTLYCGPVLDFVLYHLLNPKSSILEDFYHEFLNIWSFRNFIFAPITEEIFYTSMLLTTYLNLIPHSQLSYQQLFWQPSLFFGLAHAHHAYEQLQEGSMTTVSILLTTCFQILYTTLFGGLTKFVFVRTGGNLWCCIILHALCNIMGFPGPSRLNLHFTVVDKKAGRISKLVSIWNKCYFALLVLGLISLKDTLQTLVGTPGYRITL
# [10] = toxicity toward cultured mammalian cells – cell-based, plate reader, cherry-pick samples, cytotoxicity control, dose response (AID 504397); assay type: functional
# CAAX prenyl protease 2 [11] = biological target: T6, CAAX prenyl protease 2 (Homo sapiens, UniProt Q9Y256); assay: inhibition of Ras-converting CAAX protease Rce1 – biochemical, yeast membranes, quenched-peptide fluorescence, cherry-pick, dose response (AID 588849)
# T6 sequence (Q9Y256 whole entry): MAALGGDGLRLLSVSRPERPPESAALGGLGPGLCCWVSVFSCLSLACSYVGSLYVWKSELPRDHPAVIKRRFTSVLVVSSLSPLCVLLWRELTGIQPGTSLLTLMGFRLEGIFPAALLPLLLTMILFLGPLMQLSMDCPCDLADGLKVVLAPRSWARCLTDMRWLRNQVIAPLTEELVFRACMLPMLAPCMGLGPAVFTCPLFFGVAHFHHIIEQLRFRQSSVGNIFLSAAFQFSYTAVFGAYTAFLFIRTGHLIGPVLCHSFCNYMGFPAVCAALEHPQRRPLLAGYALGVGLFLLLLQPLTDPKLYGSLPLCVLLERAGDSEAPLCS
# [12] = biological target: T7, Voltage-gated N-type calcium channel alpha-1B subunit/Amyloid beta A4 precursor protein-binding family A member 1 (Homo sapiens, UniProt Q00975+Q02410); assay type: protein assay
# [13] = biological target: T8, Mannose-6-phosphate isomerase (Homo sapiens, UniProt P34949); assay: phosphomannose isomerase inhibition – biochemical, fluorescence intensity, confirmation (AID 1535)
# T8 sequence (P34949 whole entry): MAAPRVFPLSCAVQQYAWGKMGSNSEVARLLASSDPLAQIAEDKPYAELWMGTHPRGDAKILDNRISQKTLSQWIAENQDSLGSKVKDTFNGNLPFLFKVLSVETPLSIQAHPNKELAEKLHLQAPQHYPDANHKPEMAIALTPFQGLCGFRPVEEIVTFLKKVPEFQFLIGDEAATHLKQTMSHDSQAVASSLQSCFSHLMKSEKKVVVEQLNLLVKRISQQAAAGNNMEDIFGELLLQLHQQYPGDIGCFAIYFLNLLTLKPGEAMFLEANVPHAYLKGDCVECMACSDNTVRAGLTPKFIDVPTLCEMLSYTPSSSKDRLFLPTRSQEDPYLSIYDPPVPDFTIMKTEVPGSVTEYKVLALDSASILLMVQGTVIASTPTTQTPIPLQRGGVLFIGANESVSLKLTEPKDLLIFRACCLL
# Hexokinase-1 = Hexokinase-1 (Homo sapiens, UniProt P19367); assay: HK1 enzyme activation by HKDC1 hits – biochemical, selectivity assay for HKDC1 activator project, dose response (AID 504762); assay type: functional
# [14] = biological target: T7, Voltage-gated N-type calcium channel alpha-1B subunit/Amyloid beta A4 precursor protein-binding family A member 1; assay type: protein assay; remark: listed apart in the source
# [15] = alpha-synuclein stem-loop luciferase translation blockers – H4 neuroglioma cells, luminescence, confirmation (AID 1988); assay type: functional, cell-based
# Phosphomannomutase 2 = biological target: T9, Phosphomannomutase 2 (Homo sapiens, UniProt O15305); assay: Counter screen SAR assay for PMM2 inhibitors via a fluorescence intensity assay. [Related pubchem assays (depositor defined):AID1545, AID1574]
# T9 sequence (O15305 whole entry): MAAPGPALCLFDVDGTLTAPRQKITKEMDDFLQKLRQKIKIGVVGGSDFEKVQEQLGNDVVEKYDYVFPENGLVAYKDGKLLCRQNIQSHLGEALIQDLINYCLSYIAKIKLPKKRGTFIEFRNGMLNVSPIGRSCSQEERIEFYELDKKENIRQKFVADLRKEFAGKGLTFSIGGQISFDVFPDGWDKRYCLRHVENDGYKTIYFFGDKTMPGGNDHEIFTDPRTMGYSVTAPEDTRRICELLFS
# [16] = biological target: Eukaryotic translation initiation factor 4E (Mus musculus, UniProt P63073); assay: blockers of eIF4G binding by eIF4E – biochemical, TR-FRET, dose response (AID 855); assay type: functional;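 note: potency for disrupting eIF4E binding to eIF4GI seen as loss of FRET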
# Hexokinase HKDC1 = biological target: T10, Hexokinase HKDC1 (Homo sapiens, UniProt Q2TB90); assay: activation of HKDC1 glucose phosphorylation – biochemical, W721R variant, dose response (AID 504730); assay type: functional
# T10 sequence (Q2TB90 whole entry): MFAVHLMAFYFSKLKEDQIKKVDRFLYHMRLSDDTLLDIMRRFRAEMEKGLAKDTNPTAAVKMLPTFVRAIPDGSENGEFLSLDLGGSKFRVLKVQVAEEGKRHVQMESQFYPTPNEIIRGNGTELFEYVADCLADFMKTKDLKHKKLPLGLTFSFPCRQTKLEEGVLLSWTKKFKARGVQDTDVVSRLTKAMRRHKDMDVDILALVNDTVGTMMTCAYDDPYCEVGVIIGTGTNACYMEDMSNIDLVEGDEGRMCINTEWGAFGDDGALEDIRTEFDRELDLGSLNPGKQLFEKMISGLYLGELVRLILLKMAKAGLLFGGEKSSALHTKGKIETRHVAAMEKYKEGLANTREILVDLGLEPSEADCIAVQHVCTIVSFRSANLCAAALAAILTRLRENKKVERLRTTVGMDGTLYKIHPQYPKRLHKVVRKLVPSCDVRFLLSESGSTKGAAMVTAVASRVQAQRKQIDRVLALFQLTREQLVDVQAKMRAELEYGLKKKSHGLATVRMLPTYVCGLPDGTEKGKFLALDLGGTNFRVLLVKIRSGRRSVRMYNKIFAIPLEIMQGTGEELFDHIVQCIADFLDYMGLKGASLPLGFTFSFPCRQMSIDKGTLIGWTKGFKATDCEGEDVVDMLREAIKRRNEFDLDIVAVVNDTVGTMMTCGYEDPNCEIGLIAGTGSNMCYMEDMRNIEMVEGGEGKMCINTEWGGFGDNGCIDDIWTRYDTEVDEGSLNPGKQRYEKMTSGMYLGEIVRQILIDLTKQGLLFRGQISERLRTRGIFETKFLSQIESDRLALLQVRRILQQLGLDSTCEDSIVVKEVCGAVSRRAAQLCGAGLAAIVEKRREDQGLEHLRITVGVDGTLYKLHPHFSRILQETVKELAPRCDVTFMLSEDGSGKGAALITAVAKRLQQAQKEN
# [17] = luciferase reporter signal suppression in cells – H4 neuroglioma cells, luminescence, dose response (AID 1990); assay type: functional, cell-based
# [18] = biological target: DNA dC->dU-editing enzyme APOBEC-3G (Homo sapiens, UniProt Q9HC16); assay: Dose Response confirmation of small molecule APOBEC3G DNA Deaminase Inhibitors via a fluorescence-based single-stranded DNA deaminase assay. [Related pubchem assays (depositor defined):AID493012, AID493028]; assay type: functional
# [19] = Luminescence Cell-Based Dose Response HTS to Identify Inhibitors of 5'UTR Stem-Loop Driven Prion Protein mRNA Translation in H4 Neuroglioblastoma Cells. [Related pubchem assays: 1827 (Project Summary), 1813 (Primary HTS)]; assay type: functional
# T7 sequence (Q00975 whole entry): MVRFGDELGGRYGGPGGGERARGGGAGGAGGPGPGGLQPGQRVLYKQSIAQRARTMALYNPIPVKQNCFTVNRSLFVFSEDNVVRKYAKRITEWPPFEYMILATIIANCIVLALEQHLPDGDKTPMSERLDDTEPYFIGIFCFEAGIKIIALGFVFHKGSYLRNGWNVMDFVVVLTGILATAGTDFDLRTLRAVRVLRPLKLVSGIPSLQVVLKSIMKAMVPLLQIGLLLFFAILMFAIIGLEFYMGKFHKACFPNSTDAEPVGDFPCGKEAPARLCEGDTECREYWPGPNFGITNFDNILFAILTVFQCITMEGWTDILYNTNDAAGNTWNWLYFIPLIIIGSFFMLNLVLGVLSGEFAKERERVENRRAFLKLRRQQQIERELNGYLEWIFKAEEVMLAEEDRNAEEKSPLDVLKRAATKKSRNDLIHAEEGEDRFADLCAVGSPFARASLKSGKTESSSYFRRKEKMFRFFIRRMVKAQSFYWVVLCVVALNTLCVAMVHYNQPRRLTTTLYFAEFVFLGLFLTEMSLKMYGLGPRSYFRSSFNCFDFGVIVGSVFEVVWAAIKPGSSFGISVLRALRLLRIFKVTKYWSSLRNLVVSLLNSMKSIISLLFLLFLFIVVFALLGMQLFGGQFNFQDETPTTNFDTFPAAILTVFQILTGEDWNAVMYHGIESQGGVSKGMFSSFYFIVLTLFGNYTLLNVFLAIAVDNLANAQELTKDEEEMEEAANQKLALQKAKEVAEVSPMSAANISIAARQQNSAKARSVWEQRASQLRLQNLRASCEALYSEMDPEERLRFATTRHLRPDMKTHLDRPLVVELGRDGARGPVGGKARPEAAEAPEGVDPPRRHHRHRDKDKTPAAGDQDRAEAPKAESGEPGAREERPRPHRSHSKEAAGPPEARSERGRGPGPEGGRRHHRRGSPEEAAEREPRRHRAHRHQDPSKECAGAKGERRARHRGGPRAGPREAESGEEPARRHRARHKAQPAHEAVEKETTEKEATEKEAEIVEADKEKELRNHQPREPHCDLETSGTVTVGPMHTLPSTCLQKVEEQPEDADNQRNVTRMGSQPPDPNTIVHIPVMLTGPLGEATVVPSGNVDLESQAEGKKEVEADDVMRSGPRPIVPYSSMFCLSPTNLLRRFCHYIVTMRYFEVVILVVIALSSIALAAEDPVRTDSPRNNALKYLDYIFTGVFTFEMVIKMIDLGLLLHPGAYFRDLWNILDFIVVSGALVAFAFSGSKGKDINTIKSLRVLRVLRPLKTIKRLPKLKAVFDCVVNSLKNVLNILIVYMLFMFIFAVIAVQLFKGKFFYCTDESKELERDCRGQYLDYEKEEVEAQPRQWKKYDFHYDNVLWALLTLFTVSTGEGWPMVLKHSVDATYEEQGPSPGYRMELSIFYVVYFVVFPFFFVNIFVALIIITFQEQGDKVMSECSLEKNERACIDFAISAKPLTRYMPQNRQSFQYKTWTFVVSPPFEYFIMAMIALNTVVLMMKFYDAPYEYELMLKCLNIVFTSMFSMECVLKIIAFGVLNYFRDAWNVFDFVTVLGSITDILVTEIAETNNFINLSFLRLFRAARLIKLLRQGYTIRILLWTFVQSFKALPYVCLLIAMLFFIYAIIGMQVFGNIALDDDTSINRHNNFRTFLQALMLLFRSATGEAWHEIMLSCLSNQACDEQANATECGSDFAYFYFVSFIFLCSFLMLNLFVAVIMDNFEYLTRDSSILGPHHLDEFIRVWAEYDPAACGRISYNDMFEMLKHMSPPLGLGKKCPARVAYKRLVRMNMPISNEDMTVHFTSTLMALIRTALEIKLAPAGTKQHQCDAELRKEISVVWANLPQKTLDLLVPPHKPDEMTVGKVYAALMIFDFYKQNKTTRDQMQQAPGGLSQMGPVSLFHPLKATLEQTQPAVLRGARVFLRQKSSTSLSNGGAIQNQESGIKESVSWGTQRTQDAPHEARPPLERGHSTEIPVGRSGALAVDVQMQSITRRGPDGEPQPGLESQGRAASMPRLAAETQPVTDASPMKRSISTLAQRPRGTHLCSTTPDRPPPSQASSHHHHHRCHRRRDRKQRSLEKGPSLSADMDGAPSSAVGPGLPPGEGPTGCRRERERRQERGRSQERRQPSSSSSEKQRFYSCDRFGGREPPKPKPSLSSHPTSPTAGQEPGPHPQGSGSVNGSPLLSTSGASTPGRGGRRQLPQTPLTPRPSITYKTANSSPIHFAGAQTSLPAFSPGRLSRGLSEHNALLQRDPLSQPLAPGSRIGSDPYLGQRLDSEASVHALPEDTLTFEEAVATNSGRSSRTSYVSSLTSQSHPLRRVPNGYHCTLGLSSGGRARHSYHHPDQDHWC
# T7 sequence (Q02410 whole entry): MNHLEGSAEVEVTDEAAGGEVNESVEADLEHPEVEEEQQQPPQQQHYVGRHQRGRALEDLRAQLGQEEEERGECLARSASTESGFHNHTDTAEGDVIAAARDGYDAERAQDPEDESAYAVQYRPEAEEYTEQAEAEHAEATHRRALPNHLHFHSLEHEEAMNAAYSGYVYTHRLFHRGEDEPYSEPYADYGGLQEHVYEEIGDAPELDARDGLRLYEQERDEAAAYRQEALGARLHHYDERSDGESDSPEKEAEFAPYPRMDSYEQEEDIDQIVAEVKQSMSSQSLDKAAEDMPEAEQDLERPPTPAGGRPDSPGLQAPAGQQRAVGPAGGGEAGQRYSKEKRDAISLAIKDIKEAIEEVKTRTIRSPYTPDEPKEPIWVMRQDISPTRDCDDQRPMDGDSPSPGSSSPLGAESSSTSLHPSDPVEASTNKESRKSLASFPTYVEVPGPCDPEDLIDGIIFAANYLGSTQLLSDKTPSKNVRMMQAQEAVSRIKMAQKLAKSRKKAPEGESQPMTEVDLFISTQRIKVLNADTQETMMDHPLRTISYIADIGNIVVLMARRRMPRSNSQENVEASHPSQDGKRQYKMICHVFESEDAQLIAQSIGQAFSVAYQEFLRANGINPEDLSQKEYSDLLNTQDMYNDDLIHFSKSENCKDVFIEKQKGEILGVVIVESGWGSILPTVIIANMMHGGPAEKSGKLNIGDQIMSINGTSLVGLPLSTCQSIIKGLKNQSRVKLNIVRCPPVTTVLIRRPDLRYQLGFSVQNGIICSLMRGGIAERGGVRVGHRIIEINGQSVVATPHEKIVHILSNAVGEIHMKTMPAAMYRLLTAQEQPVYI
# Intestinal-type alkaline phosphatase (Mus musculus, UniProt P24822), sequence (P24822 whole entry): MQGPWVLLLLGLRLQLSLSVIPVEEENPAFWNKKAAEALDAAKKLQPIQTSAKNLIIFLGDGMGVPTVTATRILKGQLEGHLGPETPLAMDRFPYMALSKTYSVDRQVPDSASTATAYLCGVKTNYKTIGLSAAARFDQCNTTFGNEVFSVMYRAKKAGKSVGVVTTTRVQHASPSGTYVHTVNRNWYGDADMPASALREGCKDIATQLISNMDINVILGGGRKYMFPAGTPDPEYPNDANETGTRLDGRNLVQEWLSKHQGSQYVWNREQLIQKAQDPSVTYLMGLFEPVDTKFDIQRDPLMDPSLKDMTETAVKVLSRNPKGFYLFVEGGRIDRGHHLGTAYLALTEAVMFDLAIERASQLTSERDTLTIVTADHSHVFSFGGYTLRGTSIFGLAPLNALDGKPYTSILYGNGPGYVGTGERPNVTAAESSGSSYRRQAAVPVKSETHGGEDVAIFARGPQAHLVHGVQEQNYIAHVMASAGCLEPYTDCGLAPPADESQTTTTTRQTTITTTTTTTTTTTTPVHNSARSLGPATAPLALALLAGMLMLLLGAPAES
# Intestinal-type alkaline phosphatase (Homo sapiens, UniProt P09923), sequence (P09923 whole entry): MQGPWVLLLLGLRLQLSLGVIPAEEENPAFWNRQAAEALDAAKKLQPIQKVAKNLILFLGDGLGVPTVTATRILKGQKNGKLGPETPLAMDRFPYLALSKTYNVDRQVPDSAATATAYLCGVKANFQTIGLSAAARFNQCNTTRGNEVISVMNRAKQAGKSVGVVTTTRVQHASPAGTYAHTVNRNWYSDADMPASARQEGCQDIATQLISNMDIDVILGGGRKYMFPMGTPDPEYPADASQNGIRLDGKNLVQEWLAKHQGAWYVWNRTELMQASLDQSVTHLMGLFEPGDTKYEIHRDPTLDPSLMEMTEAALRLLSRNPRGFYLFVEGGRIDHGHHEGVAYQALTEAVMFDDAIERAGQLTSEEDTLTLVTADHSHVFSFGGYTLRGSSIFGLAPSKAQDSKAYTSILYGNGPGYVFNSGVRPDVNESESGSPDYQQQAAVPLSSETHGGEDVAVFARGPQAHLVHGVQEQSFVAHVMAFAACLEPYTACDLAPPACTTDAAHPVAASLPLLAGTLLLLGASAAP
# DNA dC->dU-editing enzyme APOBEC-3G, sequence (Q9HC16 whole entry): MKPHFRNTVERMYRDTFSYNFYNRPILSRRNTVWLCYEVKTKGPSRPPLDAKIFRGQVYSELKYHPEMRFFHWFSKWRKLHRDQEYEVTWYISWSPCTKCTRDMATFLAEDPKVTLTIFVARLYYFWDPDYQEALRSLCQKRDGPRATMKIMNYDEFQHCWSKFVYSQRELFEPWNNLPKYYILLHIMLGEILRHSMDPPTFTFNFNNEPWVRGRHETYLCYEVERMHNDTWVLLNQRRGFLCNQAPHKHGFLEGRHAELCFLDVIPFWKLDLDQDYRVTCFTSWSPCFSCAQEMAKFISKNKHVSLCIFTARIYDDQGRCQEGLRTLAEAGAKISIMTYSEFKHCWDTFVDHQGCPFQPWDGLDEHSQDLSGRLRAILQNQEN
# Eukaryotic translation initiation factor 4E, sequence (P63073 whole entry): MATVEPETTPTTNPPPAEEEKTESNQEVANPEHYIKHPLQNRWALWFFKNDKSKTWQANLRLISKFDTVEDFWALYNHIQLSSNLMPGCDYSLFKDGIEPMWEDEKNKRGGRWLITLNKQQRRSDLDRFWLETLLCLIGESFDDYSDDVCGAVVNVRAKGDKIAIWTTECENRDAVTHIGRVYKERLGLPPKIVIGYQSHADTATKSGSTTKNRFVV
smiles,measurement,setting,value
Cc1ccc(NC(=O)CCNS(=O)(=O)c2ccc3[nH]c(=O)oc3c2)cc1F,EC50,[1],1.76 µM (active)
same,EC50,[2],> 100 µM (inactive)
same,EC50,[3],> 100 µM (inactive)
CCOC(=O)c1c(-c2cccs2)csc1NC(=O)CCCC(=O)O,EC50,[4],69.1 µM (inactive)
same,IC50,Leucine aminopeptidase,20.3 µM (active)
same,EC50,[5],39.6 µM (not active)
same,EC50,[6],> 79.4 µM (not active)
CC(C)C[C@H](N)c1cn([C@@H](Cc2cc3ccccc3[nH]2)C(=O)N2CCNCC2)nn1,IC50,[7],15.8 µM (active)
same,IC50,[8],14 µM (active)
same,IC50,Bcl-2-related protein A1,> 20 µM (inactive)
Cc1cccc(OCCN2C(=O)C(=O)c3cc(C)ccc32)c1,AC50,CAAX prenyl protease 2 [9],1.11 µM (active)
same,AC50,[10],73.6 µM (active)
same,AC50,CAAX prenyl protease 2 [11],18.1 µM (active)
Cc1ccc(/N=c2\ssnc2Cl)cc1,IC50,[12],2.85 µM (active)
same,IC50,[13],18.6 µM (active)
same,EC50,Hexokinase-1,53.2 µM (inactive)
same,IC50,[14],9.27 µM (active)
same,EC50,[15],> 120 µM (not active)
same,IC50,Phosphomannomutase 2,> 100 µM (inactive)
same,IC50,[16],35.4 µM (inactive)
same,EC50,Hexokinase HKDC1,59 µM (inactive)
same,EC50,[17],> 120 µM (not active)
same,IC50,[18],10.2 µM (active)
same,EC50,[19],> 120 µM (not active)
